Assays:
Format in all cases: in vivo
Aspergillus flavus [1] = test: Aspergillus flavus pulmonary infection model in compromised mice, oral treatment; conditions: 18 days post infection; for %ANIMALS NEG: negative = <10 colonies; for %SURVIVAL: compromised CF-1 mice
Excerpt: The in vivo oral antifungal activity of the compounds of Example 23-26 were compared to those of itraconazole, fluconazole and saperconazole in an Aspergillus pulmonary infection model in mice. The procedure of David Loebenberg et al. entitled "Sch 42427, The Active Enantiomer of Antifungal agent Sch 39304: In Vitro and In Vivo Activity" Antimicrobial Agents and Chemotherapy (1992), 36 498-501 was used. The Aspergillus flavus pulmonary model was run in the following manner Male, CF-1 mice weighing 20 grams were compromised with cortisone acetate (100 mg/kg), administered subcutaneously, once daily for 3 days. In addition, to prevent bacterial disease, tetracycline HCL (300 mg/1) was added to the drinking water and given ad libitum. On day 2 of compromising, mice were infected in an inhalation chamber, first described by Piggot and Emmons in 1960 and modified by us. The chamber is a 1 liter pyrex, thick-walled flask with 8 tubular side-arms that extend into the flask. Each side-arm is a pyrex tube of 14 cm length, constricted to a 1 cm opening inside the flask. The bottom of the flask was covered with a malt extract agar medium on which a sporulating culture of A. flavus ATCC 24133 was grown for 13 days at room temperature. The top of the flask was closed with a #10 stopper through which passed a glass tube attached by rubber tubing to a 60 mL syringe. Mice were placed in each of the side arms and pushed to the bottoms so that their nares extended beyond the open end of the tube and over the agar. Cotton plugs were then inserted behind the mice to hold them in place. By pumping the 60 mL syringe twice, air was forced over the culture and produced a cloud of spores. Mice were exposed to the spore cloud for one minute. Within 15-30 minutes after exposure, a number of mice were sacrificed and lung tissue samples homogenized for culture to determine the number of inhaled conidia. Oral treatment began 24 h post-infection with doses of 5 to 250 mg of drug/kg in ethanol; vehicle (115 ml of Emulphor EL-719P, GAF, Wayne, NJ; and 5 ml of 20% w/v lactic acid per liter of water), 10:90 v/v, once daily for 4 days.
The procedure of Example 31 was used to compare the in vivo oral antifungal activity of (±)-5R/S-(cis)-4-[4-[4-[4-[[5-(2,4-difluorophenyl)-5-(1H-1,2,4-triazol-1-ylmethyl) tetrahydrofuran-3-yl]methoxy-phenyl-1-piperazinyl]phenyl]-2,4-dihydro-2[(R/S)-(1-methylpropyl)]-3H-1,2,4-triazol-3-one with (±)-2R/S-(cis)-1-[4-[[2-(2,4-difluorophenyl)-2-(1H-1,2,4-triazol-1-ylmethyl) tetrahydro-4-furanyl]methoxy]phenyl]-4-(1-methylethyl)piperazine of Example 68 of USP 5,039,676 in an Aspergillus pulmonary infection model described in Example 31. […]
The procedures of Examples 31 and 34 were used.

C. albicans C-65 = test: Candida systemic model in normal and compromised CF1 mice infected with C. albicans C-65, oral treatment; conditions: for CFUs (GM): geometric mean of the logarithms of CFU in the kidneys
Protocol: The compounds of Examples 23-26 and itraconazole, fluconazole, and saperconazole were tested for in vivo oral antifungal activity in a Candida systemic model using CF1 male mice , average weight 20 g, Harlan Sprague Dawley, Inc., Indianapolis, Ind. infected by IV injection into the tail vein of C. albicans C-43 (5 million CFUs). The drugs were dissolved in polyethylene glycol-200 (PEG-200) and tested by orally administering 50, 25 and 10 mpk of each drug 4 hours post infection and once daily for 3 more days. Oral efficacy was measured after four (4) days by percent survival and by the number of organisms remaining in the kidneys i.e., the Colony Forming Units (CFUs). The mice were sacrificed and the kidneys of individual mice were homogenized in sterile saline, diluted and spread onto Mycosel agar. Colony counts were determined after 48 hours at 37°C. For calculation of geometric means, mice that died during the experiment were considered to have 10^9 CFUs/kidneys (based on numerous previous experiments).
The compounds of Examples 23-24 and itraconazole, fluconazole, were tested for in vivo oral antifungal anctivity in a Candida systemic model using normal and compromised CF1 mice infected with C. albicans C-65 (5 million CFUs). The procedure of Example 33 was followed. The drugs were dissolved in polyethylene glycol-200 ("PEG-200) at room temperature and tested by orally administering 100, 50, 25, 10 and 1 mpk of each drug. Oral efficacy was measured by percent survival and by the number of organisms remaining in the kidneys (CFUs) after four days. […] The pharmaceutical composition of the preferred compound of formula IIb of Eample 24 in hydroxypropyl beta cyclodextrin ("HPβCD") having 7.4 hydroxypropyl groups per HPβCD (obtained from Pharmatec, Inc., Alachua, FL 32615) was prepared by admixing the appropriate amount of the compound IIa with a 40% (w/v) solution of HPβCD (4 g of HPβCD per 10 mL of purified water). Gentle heating was used to form a clear solution. For the 10 mpk dose, 12 mg of Ha was added to 6 mL of a 40% w/v solution of HPβCD. For dilutions, sterile water was added to the solution with mixing. The pharmaceutical composition of itraconazole and the Pharmatec HPβCD described above was prepared as follows. Propylene glycol (10 mL) was admixed with 0.95 mL of concentrated HCI at 40°-45°C with stirring. Itraconazole (2.5 g) was added thereto and stirring was continued until homogeneous. The mixture so formed was cooled to 20° to 30°C and admixed with a solution of 60 g of HPβCD in 40 mL of purified water to form a clear solution. The pH was adjusted to a value of 1.9-2.1 with 10N NaOH and sufficient purified water added (with mixing) to a final volume of 100 mL. For dilutions, sterile water was added to the itraconazole - HPβCD.

Aspergillus flavus [2] = test: Aspergillus flavus pulmonary infection model in compromised mice, oral treatment; conditions: for %SURVIVAL / %ANIMALS NEG / CFU-GEO MEAN OF SURVIVORS: 18 days post infection; for %SURVIVAL: compromised CF-1 mice; for %ANIMALS NEG: negative = <10 colonies; for CFU-GEO MEAN OF SURVIVORS: geometric mean of the logarithm of CFU remaining in the lung
[3] = 33 mg/kg PO once a day for 4 days
[4] = 66 mg/kg PO once a day for 4 days
[5] = 100 mg/kg PO once a day for 4 days
[6] = 600 Rads Mice (compromised), 10 MPK PO in PEG-200, 1/day x 4 days, day 4 post-infection
[7] = 600 Rads Mice (compromised), 10 MPK PO in PEG-200, day 4
[8] = 600 Rads Mice (compromised), 25 MPK PO in PEG-200, 1/day x 4 days, day 4 post-infection
[9] = 600 Rads Mice (compromised), 25 MPK PO in PEG-200, day 4
[10] = 600 Rads Mice (compromised), 50 MPK PO in PEG-200, 1/day x 4 days, day 4 post-infection
[11] = 600 Rads Mice (compromised), 50 MPK PO in PEG-200, day 4
[12] = 600 Rads Mice (compromised), 100 MPK PO in PEG-200, 1/day x 4 days, day 4 post-infection
[13] = 600 Rads Mice (compromised), 100 MPK PO in PEG-200, day 4
[14] = Normal Mice, 1 MPK PO in PEG-200, 1/day x 4 days, day 4 post-infection
[15] = Normal Mice, 1 MPK PO in PEG-200, day 4
[16] = Normal Mice, 10 MPK PO in PEG-200, 1/day x 4 days, day 4 post-infection
[17] = Normal Mice, 10 MPK PO in PEG-200, day 4
[18] = Normal Mice, 25 MPK PO in PEG-200, 1/day x 4 days, day 4 post-infection
[19] = Normal Mice, 25 MPK PO in PEG-200, day 4
[20] = Normal Mice, 50 MPK PO in PEG-200, 1/day x 4 days, day 4 post-infection
[21] = Normal Mice, 50 MPK PO in PEG-200, day 4
[22] = 33 mg/kg PO [3RX/DAY] for 4 days

For `CCC(C)n1ncn(-c2ccc(N3CCN(c4ccc(OCC5COC(Cn6cncn6)(c6ccc(Cl)cc6Cl)O5)cc4)CC3)cc2)c1=O` (centres unmarked) [Itraconazole, reference compound], the “%ANIMALS NEG” value (Aspergillus flavus [1]; [3]) was 0%, the “%ANIMALS NEG” value (Aspergillus flavus [1]; [4]) was 0% and the “%SURVIVAL” value (Aspergillus flavus [1]; [5]) was 20%. For the same molecule, the “%ANIMALS NEG” value (Aspergillus flavus [1]; [5]) was 0%, the “% S (Percent Survival)” value (C. albicans C-65; 600 Rads Mice (compromised), 10 MPK PO in Beta-CD-H, 1/day x 4 days, day 4) was 30% and the “CFUs (GM)” value (C. albicans C-65; 600 Rads Mice (compromised), 10 MPK PO in Beta-CD-H, day 4) was 8.11. The “% S (Percent Survival)” value (C. albicans C-65; [6]) was 0%, the “CFUs (GM)” value (C. albicans C-65; [7]) was 9.00 and the “% S (Percent Survival)” value (C. albicans C-65; 600 Rads Mice (compromised), 25 MPK PO in Beta-CD-H, 1/day x 4 days, day 4) was 60%. For the same molecule, the “CFUs (GM)” value (C. albicans C-65; 600 Rads Mice (compromised), 25 MPK PO in Beta-CD-H, day 4) was 7.98, the “% S (Percent Survival)” value (C. albicans C-65; [8]) was 0% and the “CFUs (GM)” value (C. albicans C-65; [9]) was 9.00. For the same molecule, the “% S (Percent Survival)” value (C. albicans C-65; [10]) was 0%, the “CFUs (GM)” value (C. albicans C-65; [11]) was 9.00 and the “% S (Percent Survival)” value (C. albicans C-65; [12]) was 20%. The “CFUs (GM)” value (C. albicans C-65; [13]) was 8.45, the “% S (Percent Survival)” value (C. albicans C-65; [14]) was 0% and the “CFUs (GM)” value (C. albicans C-65; [15]) was 900. The “% S (Percent Survival)” value (C. albicans C-65; Normal Mice, 10 MPK PO in Beta-CD-H (HPβCD vehicle for itraconazole), 1/day x 4 days, day 4) was 0%, the “CFUs (GM)” value (C. albicans C-65; Normal Mice, 10 MPK PO in Beta-CD-H, day 4) was 9.00 and the “% S (Percent Survival)” value (C. albicans C-65; [16]) was 30%. For the same molecule, the “CFUs (GM)” value (C. albicans C-65; [17]) was 7.64, the “% S (Percent Survival)” value (C. albicans C-65; Normal Mice, 25 MPK PO in Beta-CD-H (HPβCD vehicle for itraconazole), 1/day x 4 days, day 4) was 100% and the “CFUs (GM)” value (C. albicans C-65; Normal Mice, 25 MPK PO in Beta-CD-H, day 4) was 6.19. For the same molecule, the “% S (Percent Survival)” value (C. albicans C-65; [18]) was 50%, the “CFUs (GM)” value (C. albicans C-65; [19]) was 6.93 and the “% S (Percent Survival)” value (C. albicans C-65; [20]) was 60%. For the same molecule, the “CFUs (GM)” value (C. albicans C-65; [21]) was 5.98, the “%SURVIVAL” value (Aspergillus flavus [2]; [22]) was 10% and the “%ANIMALS NEG” value (Aspergillus flavus [2]; [22]) was 0%. The “%SURVIVAL” value (Aspergillus flavus [2]; [3]) was 0%, the “%SURVIVAL” value (Aspergillus flavus [2]; [4]) was 0% and the “PERCENT SURVIVAL AFTER 5 DAYS (5D)” value (Aspergillus flavus [2]; head prints 50 mg/kg (third dose column, c3), in PEG-200 daily for 4 days, CF-1 mice) was 17.
`CC[C@@H](C)n1ncn(-c2ccc(N3CCN(c4ccc(OC[C@@H]5CO[C@@](Cn6cncn6)(c6ccc(F)cc6F)C5)cc4)CC3)cc2)c1=O` [Example 23] was tested, and the “%SURVIVAL” value (Aspergillus flavus [1]; [3]) was 10%, the “%ANIMALS NEG” value (Aspergillus flavus [1]; [3]) was 0% and the “%SURVIVAL” value (Aspergillus flavus [1]; [4]) was 10%. The “%ANIMALS NEG” value (Aspergillus flavus [1]; [4]) was 0%, the “%SURVIVAL” value (Aspergillus flavus [1]; [5]) was 70% and the “%ANIMALS NEG” value (Aspergillus flavus [1]; [5]) was 10%. The “% S (Percent Survival)” value (C. albicans C-65; [6]) was 0%, the “CFUs (GM)” value (C. albicans C-65; [7]) was 9.00 and the “% S (Percent Survival)” value (C. albicans C-65; [8]) was 20%. For the same molecule, the “CFUs (GM)” value (C. albicans C-65; [9]) was 8.65, the “% S (Percent Survival)” value (C. albicans C-65; [10]) was 30% and the “CFUs (GM)” value (C. albicans C-65; [11]) was 7.33. The “% S (Percent Survival)” value (C. albicans C-65; [12]) was 50%, the “CFUs (GM)” value (C. albicans C-65; [13]) was 6.43 and the “% S (Percent Survival)” value (C. albicans C-65; [14]) was 0%. The “CFUs (GM)” value (C. albicans C-65; [15]) was 9.00, the “% S (Percent Survival)” value (C. albicans C-65; [16]) was 30% and the “CFUs (GM)” value (C. albicans C-65; [17]) was 7.12. For the same molecule, the “% S (Percent Survival)” value (C. albicans C-65; [18]) was 60%, the “CFUs (GM)” value (C. albicans C-65; [19]) was 5.74 and the “% S (Percent Survival)” value (C. albicans C-65; [20]) was 90%. For the same molecule, the “CFUs (GM)” value (C. albicans C-65; [21]) was 4.69, the “%SURVIVAL” value (Aspergillus flavus [2]; [22]) was 60% and the “CFU-GEO MEAN OF SURVIVORS” value (Aspergillus flavus [2]; [22]) was 1.08. For the same molecule, the “%ANIMALS NEG” value (Aspergillus flavus [2]; [22]) was 10% and the “CFU-GEO MEAN OF SURVIVORS” value (Aspergillus flavus [2]; [5]) was 1.85.

From patent EP0610377B1, “TRI-SUBSTITUTED TETRAHYDROFURAN ANTIFUNGALS” (SCHERING CORPORATION, priority 1991, dated 1993)
